Data on three molecules can be found in ChEMBL document CHEMBL1157076, “Tetracenoquinocin and 5-iminoaranciamycin from a sponge-derived Streptomyces sp. Sp080513GE-26” (J Nat Prod, 2010).

pIC50: −log10 of the molar value.

One assay has as its system HeLa. Kind of assay: Cytotoxicity against human HeLa cells after 48 hrs by WST8 assay. It is filed as functional, cell-based. In general terms: Tetrazolium assays rely on reduction of a dye to a coloured formazan, in cell work by metabolically active cells.
The subject of a further assay is HL-60. Description: Cytotoxicity against human HL60 cells after 48 hrs by WST8 assay. Type of assay: functional, cell-based. The conditions noted are these: HL-60, 48 h.

The term pIC50 denotes the negative decadic logarithm of the IC50, by convention in mol/L. Low values mean a high IC50, high ones a low IC50. Regarding `CO[C@H]1[C@H](O[C@@H]2c3c(cc4c(c3O)C(=N)c3c(O)cccc3C4=O)C(=O)[C@@](C)(O)[C@H]2OC)O[C@@H](C)[C@H](O)[C@H]1O`, the pIC50 in the assay on HeLa and in the assay with HL-60 was less than 3.70 each time.
Consider `CO[C@H]1[C@H](O[C@@H]2c3c(cc4c(c3O)C(=O)c3c(O)cccc3C4=O)C(=O)[C@@](C)(O)[C@H]2OC)O[C@@H](C)[C@H](O)[C@H]1O` [ARANCIAMYCIN], for which the pIC50 with HeLa is 5.57; with HL-60, 5.39.
Taken in the same sequence, the figures for `CO[C@H]1[C@H](Oc2cc(C)cc3cc4c(c(O)c23)C(=O)c2c(O)cccc2C4=O)O[C@@H](C)[C@H](O)[C@H]1O` [TETRACENOQUINOCIN] were 3.92 and 3.68.
